# In patent US8143307B2, “Benzothiophen-2-carbonylguanidine derivatives, preparation thereof, and pharmaceutical composition containing the same” (Korea Research Institute of Chemical Technology, priority 2004, dated 2012):
# Columns and labels:
# [1] = system: in vivo ischemic rat brain model; assay: Cerebroprotective effect on in vivo ischemic rat brain model; settings: for % Infarct size/hemisphere / TUNEL-Positive Cells (% Right/Left Hemisphere): 60 min ischemia, 24 hours reperfusion
# Experimental: In order to examine whether the benzothiophen-2-carbonylguanidine derivatives of the present invention protect the brain from ischemia-reperfusion-induced cerebral injury, the following experiment was conducted.
# Male Sparague-Dawley Rats (350±50 g, Samyook Experimental Animal Lab) were anesthetized and intraperitoneally injected with heparine. After ischemia by the occlusion of the right carotid artery for 60 min, reperfusion was performed for 24 hours. Compounds or a vehicle was intravenously injected at 20 min before the occlusion.
# After the perfusion for 24 hours, rats were anesthetized with a fatal dose of sodium pentobarbital. The brains were carefully isolated and transected at intervals of 2 mm. The coronary slices thus obtained were stained at 37° C. for 20 min using a 2% 2,3,5-triphenyltetrazolium chloride solution. Stained slices were analyzed for % necrosis area relative to total brain area using an image analyzer (BAS image 1500). Also, the cerebroprotective activity of the compounds against brain edema was expressed as % volume of the left hemisphere relative to that of the ischemic right hemisphere.
# [2] = system: in vivo ischemic rat heart model; assay: Cardioprotective effect on in vivo ischemic rat heart model (coronary occlusion/reperfusion, infarct size); settings: 45 min occlusion, 90 min reperfusion
# Experimental: The cardioprotective effect of the benzothiophen-2-carbonylguanidine derivatives according to the present invention in in vivo ischemic hearts was judged with regard to their antischemic effects (myocardiac infarction reduction) on rats as follows.
# Each male rat (300˜450 g, the Korea Research Institute of Chemical Technology, Experimental Animal Lab) was anesthetized by intraperitoneal injection with sodium pentobarbital at a dose of 75 mg/kg. Tracheotomy was performed and a tube was inserted into the trachea for subsequent artificial ventilation with a stroke volume of 10 ml/kg and a respiratory rate of 60 breaths/min. The femoral vein and the femoral artery were cannulated for the administration of the compounds and for the measurement of blood pressures, respectively. Meanwhile, the body temperature of the rats, an important factor to influence experimental results in the ischemic myocardiac injury model, was maintained constant at 37° C. using a homeothermic blanket control unit, with a body temperature-monitoring probe inserted into the rectum. Subsequently, rats were continuously measured for mean arterial blood pressure and heart rate HR throughout the experimental time period using a Statham P23XL pressure transducer (Grass Ins., Mass., USA) and an ECG/RATE Coupler (Hugo Sachs Electronic, Germany), respectively, with all continuous changes thereof recorded by Graphtec Linearcorder WR 3310 (Hugo Sachs Electronic).
# The left coronary artery was occluded according to Selye H.'s method. In detail, after the chest of each rat was partially opened by left thoracotomy, the middle finger of the left hand was pressed against the right side of the chest of the rat to thrust out the heart which was then slightly fixed with the forefinger and the thumb of the same hand. Then, immediately after the left anterior descending coronary artery (LAD) was sutured with a 5-0 silk ligature, the heart was repositioned back in the thoracic cavity with both ends of the suture positioned outside. The ends of the suture were threaded through a PE tube (PE100, 2.5 cm) and allowed to stand for 20 min for stabilization. Through the cannula inserted into the femoral vein, a vehicle or the compounds of the invention were administered and 30 min was needed for sufficient effects of the administered compounds. Cariporide was used as a control. The ends of the suture threaded through the PE tube were pulled taut with hemostatic forceps to vertically press the PE tube against the coronary artery. After occlusion for 45 min, the hemostatic forceps were removed and reperfusion was conducted for 90 min.
# The coronary artery was reoccluded in the same manner as described above, followed by the intravenous injection of 2 ml of 1% Evans blue. The intravenous injection of an excess of pentobarbital killed the rats, from which the hearts were then excised. The left ventricle was removed alone from the isolated heart and transected from the cardiac apex into 5 or 6 slices. Each slice was weighed. The image of each of the heart slices was captured using a Hi-scope, a compact vision system, and analyzed for blue-stained normal areas and non-stained areas with an image analyzing program (Image Pro Plus). In each slice, the area at risk (AAR) was calculated by multiplying the ratio of the non-stained area to the total area of the slice with the weight of the slice. Sum of the individual area at risk (AAR) for each slice was divided by the total weight of the left ventricle to obtain AAR (%) according to the following mathmatical formula 1.
# Separately, the heat slices were incubated in 1%. 2,3,5-triphenyltetrazolium chloride (TTC) phosphate buffer (pH 7.4), 37° C., for 15 min and fixed in 10% formalin for 20˜24 hours. In the normal area of the tissue, 2,3,5-triphenyltetrazolium chloride was reduced by the myocardial dehydrogenase in the presence of the cofactor NADH to form formazan dye, which appeared as a brick-red color. […]
# cortical neurons = assay: Neuroprotective effect against glutamate-induced neurotoxicity; assay type: cell-based, rat; settings: for TUNEL-Positive Cells (apoptosis): 12 hours after glutamate treatment; for Free LDH Levels (necrosis): 20 hours after glutamate treatment
# Experimental: Cortical neurons were isolated from the brain of 14-day-old fetal rats and cultured in Eagle's MEM (Minimum essential medium) at 37° C. in a 5% CO2 atmosphere. On day 3 or 4 of culturing, 10 μM cytosine-β-arabinofuranoside (AraC) was added to the culture medium to prevent the overgrowth of glial cells. […] On day 7˜9 of culturing, the cells were induced to cellular toxicity by treatment with 100 μM glutamate in combination with the compounds of interest or vehicle alone as a negative control. Necrosis was determined by released LDH (Lactate dehydrogenase) levels at 20 hours after glutamate treatment. For the analysis of apoptosis, the count of TUNEL (Terminal deoxynucleotidyl transferase UTP nick end labeling)-positive cells was measured at 12 hours after glutamate treatment.
# [3] = 0.1 mg/kg intravenous 20 min before occlusion
# [4] = 0.3 mg/kg intravenous 20 min before occlusion
smiles,measurement,setting,value
"CS(=O)(=O)O.N#Cc1cccc2sc(C(=O)N=C(N)N)cc12 [Example 42, (4-Cyanobenzothiophene-2-Carbonyl)Guanidine Methanesulfonate]",% Infarct size/hemisphere,[1]; [3],21.4%
same,TUNEL-Positive Cells (% Right/Left Hemisphere),[1]; [3],111.2%
same,% Infarct size/hemisphere,[1]; [4],18.6%
same,TUNEL-Positive Cells (% Right/Left Hemisphere),[1]; [4],107.96%
same,ischemia/reperfusion-induced brain infarction and brain edema,[1]; injection doses of both 0.1 mg/kg and 0.3 mg/kg,significantly reduced
same,"Myocardiac infarction rate (IS/AAR, %)",[2]; 0.1 mg/kg intravenous,36.9%
same,"Myocardiac infarction rate (IS/AAR, %)",[2]; 0.3 mg/kg intravenous,34.4%
same,TUNEL-Positive Cells (apoptosis),cortical neurons; 0.1 μM with 100 μM glutamate,28.6
same,Free LDH Levels (necrosis),cortical neurons; 0.1 μM with 100 μM glutamate,58.6
same,TUNEL-Positive Cells (apoptosis),cortical neurons; 1.0 μM with 100 μM glutamate,23.9
same,Free LDH Levels (necrosis),cortical neurons; 1.0 μM with 100 μM glutamate,43.2
same,TUNEL-Positive Cells (apoptosis),cortical neurons; 10 μM with 100 μM glutamate,18.8
same,Free LDH Levels (necrosis),cortical neurons; 10 μM with 100 μM glutamate,38.8
same,TUNEL-Positive Cells (apoptosis),cortical neurons; 100 μM with 100 μM glutamate,12.6
same,Free LDH Levels (necrosis),cortical neurons; 100 μM with 100 μM glutamate,32.3
same,necrosis and apoptosis of neurons (glutamate-induced neurotoxicity),cortical neurons; 0.1-100 μM with 100 μM glutamate,inhibited the necrosis and apoptosis of neurons in dose-dependent manners
